Legend:
Assay in all cases: biochemical
ABL(T315I) = molecular target: T1, ABL(T315I) (Homo sapiens, UniProt P00519, T315I)
T1 construct: gene ABL1
Summary of the method: (§1)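 Human kinases phosphorylating kinase-specific synthetic peptides, assayed by mobility shift (MSA) or IMAP fluorescence polarization, in 20 mM HEPES pH 7.5, 0.01% Triton X-100, 2 mM DTT with substrate/ATP-metal. Reactions ran 1 or 5 h at room temperature; activity = P/(P + S) from product and substrate peak heights.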

ALK = ALK (Homo sapiens, UniProt Q9UM73)
Summary of the method: as §1

ALK(G1202R) = ALK(G1202R) (Homo sapiens, UniProt Q9UM73, G1202R)
Summary of the method: as §1

CDK2/CycE1 = CDK2/CycE1 (Homo sapiens, UniProt P24941)
Summary of the method: as §1

CDK9/CycT1 = CDK9/CycT1 (Homo sapiens, UniProt P50750)
Sequence of CDK9/CycT1 (P50750 whole entry): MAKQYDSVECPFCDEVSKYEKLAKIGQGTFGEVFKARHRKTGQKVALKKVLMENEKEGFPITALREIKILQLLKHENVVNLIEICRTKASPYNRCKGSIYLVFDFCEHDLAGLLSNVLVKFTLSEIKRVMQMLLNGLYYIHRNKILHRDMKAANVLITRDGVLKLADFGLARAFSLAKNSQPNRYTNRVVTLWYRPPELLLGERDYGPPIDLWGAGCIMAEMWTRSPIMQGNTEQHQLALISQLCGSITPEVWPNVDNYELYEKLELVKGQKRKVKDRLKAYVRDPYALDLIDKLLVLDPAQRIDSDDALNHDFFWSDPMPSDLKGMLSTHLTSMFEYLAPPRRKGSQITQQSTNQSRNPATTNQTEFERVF
Sequence of CDK9/CycT1 (O60563 whole entry partner): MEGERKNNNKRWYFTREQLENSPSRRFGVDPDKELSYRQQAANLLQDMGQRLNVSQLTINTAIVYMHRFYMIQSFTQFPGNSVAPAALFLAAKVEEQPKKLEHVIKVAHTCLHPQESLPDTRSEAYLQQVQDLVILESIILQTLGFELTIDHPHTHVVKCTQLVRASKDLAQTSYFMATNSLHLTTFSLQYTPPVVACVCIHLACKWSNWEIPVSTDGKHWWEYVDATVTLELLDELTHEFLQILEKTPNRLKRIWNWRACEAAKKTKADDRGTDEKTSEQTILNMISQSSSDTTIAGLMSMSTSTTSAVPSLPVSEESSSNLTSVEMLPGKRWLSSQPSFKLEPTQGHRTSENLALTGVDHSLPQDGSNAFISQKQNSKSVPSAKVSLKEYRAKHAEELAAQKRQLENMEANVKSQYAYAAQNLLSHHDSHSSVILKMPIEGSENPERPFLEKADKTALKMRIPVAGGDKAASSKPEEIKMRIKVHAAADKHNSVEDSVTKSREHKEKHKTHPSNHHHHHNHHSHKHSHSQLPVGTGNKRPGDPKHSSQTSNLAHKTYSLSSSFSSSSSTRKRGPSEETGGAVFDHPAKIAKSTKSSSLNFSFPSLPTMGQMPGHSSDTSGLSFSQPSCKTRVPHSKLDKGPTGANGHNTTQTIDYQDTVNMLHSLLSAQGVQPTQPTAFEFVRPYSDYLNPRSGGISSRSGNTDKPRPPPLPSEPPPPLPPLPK
Summary of the method: as §1

CK1δ = molecular target: T2, CK1δ (Homo sapiens, UniProt P48730)
T2 construct: gene CSNK1D
Summary of the method: as §1

CK2α1/β = molecular target: T3, CK2α1/β (Homo sapiens, UniProt P68400)
T3 construct: gene CSNK2A1
Summary of the method: as §1

CaMK2α = molecular target: T4, CaMK2α (Homo sapiens, UniProt Q9UQM7)
T4 construct: gene CAMK2A
Summary of the method: as §1

CaMK2γ = molecular target: T5, CaMK2γ (Homo sapiens, UniProt Q13555)
T5 construct: gene CAMK2G
T5 sequence (Q13555 whole entry): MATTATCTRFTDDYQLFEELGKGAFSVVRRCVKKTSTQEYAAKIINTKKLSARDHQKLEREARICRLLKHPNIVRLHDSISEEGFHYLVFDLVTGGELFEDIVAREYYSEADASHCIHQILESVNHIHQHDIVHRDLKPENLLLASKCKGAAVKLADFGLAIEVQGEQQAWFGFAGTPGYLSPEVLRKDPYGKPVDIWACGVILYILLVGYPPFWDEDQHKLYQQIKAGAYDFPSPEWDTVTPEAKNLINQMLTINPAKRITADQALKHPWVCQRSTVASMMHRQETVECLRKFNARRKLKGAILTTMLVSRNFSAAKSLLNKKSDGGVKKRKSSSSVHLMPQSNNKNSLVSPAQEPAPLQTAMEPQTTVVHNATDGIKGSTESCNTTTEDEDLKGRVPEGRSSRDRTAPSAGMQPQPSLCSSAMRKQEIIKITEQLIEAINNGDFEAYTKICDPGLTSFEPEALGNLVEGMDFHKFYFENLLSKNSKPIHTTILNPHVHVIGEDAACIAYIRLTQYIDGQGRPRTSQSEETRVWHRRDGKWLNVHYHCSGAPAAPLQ
Summary of the method: as §1

EPHA3 = EPHA3 (Homo sapiens, UniProt P29320)
Sequence of EPHA3 (P29320 whole entry): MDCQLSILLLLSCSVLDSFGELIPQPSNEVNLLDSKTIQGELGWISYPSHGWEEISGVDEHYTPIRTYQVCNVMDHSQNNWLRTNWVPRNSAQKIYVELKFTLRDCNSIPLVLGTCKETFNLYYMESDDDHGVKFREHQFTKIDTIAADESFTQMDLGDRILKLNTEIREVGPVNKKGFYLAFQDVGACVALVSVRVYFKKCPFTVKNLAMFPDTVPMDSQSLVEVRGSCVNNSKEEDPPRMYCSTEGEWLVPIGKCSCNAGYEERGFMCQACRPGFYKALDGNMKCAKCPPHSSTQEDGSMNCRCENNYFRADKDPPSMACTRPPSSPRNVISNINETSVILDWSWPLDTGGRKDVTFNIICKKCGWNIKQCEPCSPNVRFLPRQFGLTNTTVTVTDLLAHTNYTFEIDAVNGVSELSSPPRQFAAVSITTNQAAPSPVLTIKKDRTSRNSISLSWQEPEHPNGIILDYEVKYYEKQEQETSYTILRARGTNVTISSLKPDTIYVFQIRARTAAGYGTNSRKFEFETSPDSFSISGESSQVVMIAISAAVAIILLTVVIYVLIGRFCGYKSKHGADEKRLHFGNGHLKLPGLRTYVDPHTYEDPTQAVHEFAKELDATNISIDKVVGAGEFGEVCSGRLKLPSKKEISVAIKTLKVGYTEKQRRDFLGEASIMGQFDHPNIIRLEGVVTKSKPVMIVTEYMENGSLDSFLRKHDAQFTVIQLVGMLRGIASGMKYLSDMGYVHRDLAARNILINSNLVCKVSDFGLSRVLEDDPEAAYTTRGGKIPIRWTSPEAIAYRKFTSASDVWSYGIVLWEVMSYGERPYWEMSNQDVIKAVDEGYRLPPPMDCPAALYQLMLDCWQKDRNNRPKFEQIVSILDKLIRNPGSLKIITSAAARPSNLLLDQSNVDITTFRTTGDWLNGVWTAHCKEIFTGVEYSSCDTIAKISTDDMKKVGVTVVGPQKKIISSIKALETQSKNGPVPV
Summary of the method: as §1

FGFR3 = FGFR3 (Homo sapiens, UniProt P22607)
Summary of the method: as §1

FGFR3(K650M) = FGFR3(K650M) (Homo sapiens, UniProt P22607, K650M)
Summary of the method: as §1

FGFR4(V550L) = FGFR4(V550L) (Homo sapiens, UniProt P22455, V550L)
Summary of the method: as §1

FYN(isoform a) = molecular target: T6, FYN(isoform a) (Homo sapiens, UniProt P06241)
T6 construct: isoform a
Summary of the method: as §1

HER2 = molecular target: T7, HER2 (Homo sapiens, UniProt P04626)
T7 construct: gene ERBB2
Summary of the method: as §1

HIPK1 = HIPK1 (Homo sapiens, UniProt Q86Z02)
Summary of the method: as §1

HIPK4 = HIPK4 (Homo sapiens, UniProt Q8NE63)
Sequence of HIPK4 (Q8NE63 whole entry): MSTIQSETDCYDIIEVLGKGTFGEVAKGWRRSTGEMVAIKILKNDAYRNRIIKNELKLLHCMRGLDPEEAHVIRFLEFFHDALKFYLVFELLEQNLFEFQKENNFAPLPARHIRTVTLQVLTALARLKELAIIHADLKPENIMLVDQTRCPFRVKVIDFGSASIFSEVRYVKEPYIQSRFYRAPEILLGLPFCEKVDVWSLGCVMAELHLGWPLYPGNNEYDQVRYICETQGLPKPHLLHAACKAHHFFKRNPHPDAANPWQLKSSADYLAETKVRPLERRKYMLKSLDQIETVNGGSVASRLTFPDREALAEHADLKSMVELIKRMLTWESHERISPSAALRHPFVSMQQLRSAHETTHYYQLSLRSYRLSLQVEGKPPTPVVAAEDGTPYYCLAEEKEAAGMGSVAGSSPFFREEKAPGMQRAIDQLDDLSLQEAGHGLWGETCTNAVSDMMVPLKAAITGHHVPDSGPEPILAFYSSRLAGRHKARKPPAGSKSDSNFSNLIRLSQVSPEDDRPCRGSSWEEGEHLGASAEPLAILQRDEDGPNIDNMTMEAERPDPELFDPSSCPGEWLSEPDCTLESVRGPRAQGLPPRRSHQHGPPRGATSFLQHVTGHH
Summary of the method: as §1

IKKβ = molecular target: T8, IKKβ (Homo sapiens, UniProt O14920)
T8 construct: gene IKBKB
Summary of the method: as §1

JAK3 = JAK3 (Homo sapiens, UniProt P52333)
Sequence of JAK3 (P52333 whole entry): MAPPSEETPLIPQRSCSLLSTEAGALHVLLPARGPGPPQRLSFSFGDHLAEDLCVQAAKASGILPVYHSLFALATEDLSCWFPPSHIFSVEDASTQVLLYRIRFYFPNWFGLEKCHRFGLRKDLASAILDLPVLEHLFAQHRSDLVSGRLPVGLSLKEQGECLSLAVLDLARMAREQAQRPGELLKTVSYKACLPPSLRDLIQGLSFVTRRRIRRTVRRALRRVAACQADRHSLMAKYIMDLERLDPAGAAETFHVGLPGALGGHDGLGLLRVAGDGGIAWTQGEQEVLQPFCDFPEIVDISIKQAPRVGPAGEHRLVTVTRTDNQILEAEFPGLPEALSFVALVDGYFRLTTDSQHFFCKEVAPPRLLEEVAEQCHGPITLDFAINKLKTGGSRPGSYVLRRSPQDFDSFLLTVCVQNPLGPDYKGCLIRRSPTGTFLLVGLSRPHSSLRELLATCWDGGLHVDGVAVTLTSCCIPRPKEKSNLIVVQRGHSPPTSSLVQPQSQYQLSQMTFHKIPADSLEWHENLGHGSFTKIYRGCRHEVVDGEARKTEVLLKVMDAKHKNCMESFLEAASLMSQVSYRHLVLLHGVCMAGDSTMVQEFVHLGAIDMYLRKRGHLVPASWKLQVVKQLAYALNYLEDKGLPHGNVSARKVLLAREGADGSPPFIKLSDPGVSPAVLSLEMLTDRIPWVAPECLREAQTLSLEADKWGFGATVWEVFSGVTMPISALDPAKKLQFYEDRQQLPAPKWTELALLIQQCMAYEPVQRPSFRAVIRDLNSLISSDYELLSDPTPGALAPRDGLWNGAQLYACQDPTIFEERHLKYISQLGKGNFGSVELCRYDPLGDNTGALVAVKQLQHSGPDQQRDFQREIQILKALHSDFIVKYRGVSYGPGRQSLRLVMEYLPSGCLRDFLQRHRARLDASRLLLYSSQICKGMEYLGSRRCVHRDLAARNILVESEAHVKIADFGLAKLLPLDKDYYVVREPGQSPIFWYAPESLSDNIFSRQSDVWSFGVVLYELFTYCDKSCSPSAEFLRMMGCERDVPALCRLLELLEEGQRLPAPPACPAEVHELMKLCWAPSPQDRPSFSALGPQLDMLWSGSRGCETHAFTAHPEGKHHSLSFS
Summary of the method: as §1

KIT = KIT (Homo sapiens, UniProt P10721)
Summary of the method: as §1

LCK = LCK (Homo sapiens, UniProt P06239)
Summary of the method: as §1

MER = molecular target: T9, MER (Homo sapiens, UniProt Q12866)
T9 construct: gene MERTK
Summary of the method: as §1

MST1 = molecular target: T10, MST1 (Homo sapiens, UniProt Q13043)
T10 construct: gene STK4
Summary of the method: as §1

PAK5 = PAK5 (Homo sapiens, UniProt Q9P286)
Summary of the method: as §1

PLK1 = PLK1 (Homo sapiens, UniProt P53350)
Summary of the method: as §1

RET(G691S) = RET(G691S) (Homo sapiens, UniProt P07949, G691S)
Summary of the method: as §1

SPHK1 = SPHK1 (Homo sapiens, UniProt Q9NYA1)
Summary of the method: as §1

SRC = SRC (Homo sapiens, UniProt P12931)
Sequence of SRC (P12931 whole entry): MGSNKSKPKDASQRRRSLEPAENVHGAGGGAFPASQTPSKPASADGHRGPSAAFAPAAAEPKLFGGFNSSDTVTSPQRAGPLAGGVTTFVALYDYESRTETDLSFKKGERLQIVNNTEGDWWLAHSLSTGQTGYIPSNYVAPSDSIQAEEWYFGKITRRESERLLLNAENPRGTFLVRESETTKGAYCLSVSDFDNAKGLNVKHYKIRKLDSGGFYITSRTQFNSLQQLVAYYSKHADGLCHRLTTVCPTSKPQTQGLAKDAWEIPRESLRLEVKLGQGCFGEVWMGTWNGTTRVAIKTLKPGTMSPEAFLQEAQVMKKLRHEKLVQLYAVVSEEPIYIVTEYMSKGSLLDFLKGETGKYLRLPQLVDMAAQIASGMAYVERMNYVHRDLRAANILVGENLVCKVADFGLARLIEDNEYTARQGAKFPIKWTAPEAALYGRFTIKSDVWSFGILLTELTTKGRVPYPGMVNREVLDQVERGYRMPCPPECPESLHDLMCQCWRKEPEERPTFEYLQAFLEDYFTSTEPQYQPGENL
Summary of the method: as §1

TSSK2 = TSSK2 (Homo sapiens, UniProt Q96PF2)
Summary of the method: as §1

p38α = molecular target: T11, p38α (Homo sapiens, UniProt Q16539)
T11 construct: gene MAPK14
Summary of the method: as §1

p38γ = molecular target: T12, p38γ (Homo sapiens, UniProt P53778)
T12 construct: gene MAPK12
Summary of the method: as §1

c1cc(-c2ccc3[nH]ncc3c2)ccn1 [TG693, 5-(4-pyridinyl)-1H-indazole]
inhibition at 1 µM (ABL(T315I)): 6.5%
inhibition at 1 µM (ALK): 6.1%
inhibition at 1 µM (ALK(G1202R)): 3.8%
inhibition at 1 µM (CDK2/CycE1): 18.1%
inhibition at 1 µM (CDK9/CycT1): 57.8%
inhibition at 1 µM (CK1δ): 21.3%
inhibition at 1 µM (CK2α1/β): 3.5%
inhibition at 1 µM (CaMK2α): -3.3%
inhibition at 1 µM (CaMK2γ): -2.4%
inhibition at 1 µM (EPHA3): 0.4%
inhibition at 1 µM (FGFR3): -0.6%
inhibition at 1 µM (FGFR3(K650M)): 7.8%
inhibition at 1 µM (FGFR4(V550L)): -36.6%
inhibition at 1 µM (FYN(isoform a)): -0.7%
inhibition at 1 µM (HER2): -3.8%
inhibition at 1 µM (HIPK1): -3.5%
inhibition at 1 µM (HIPK4): 7.6%
inhibition at 1 µM (IKKβ): 14.6%
inhibition at 1 µM (JAK3): 11.6%
inhibition at 1 µM (KIT): -0.9%
inhibition at 1 µM (LCK): -8.4%
inhibition at 1 µM (MER): 3%
inhibition at 1 µM (MST1): -1.9%
inhibition at 1 µM (PAK5): -14%
inhibition at 1 µM (PLK1): -8.5%
inhibition at 1 µM (RET(G691S)): 4.9%
inhibition at 1 µM (SPHK1): -2.3%
inhibition at 1 µM (SRC): 3.2%
inhibition at 1 µM (TSSK2): -0.1%
inhibition at 1 µM (p38α): -0.1%
inhibition at 1 µM (p38γ): 1.4%

From PMC5448077, “Development of an orally available inhibitor of CLK1 for skipping a mutated dystrophin exon in Duchenne muscular dystrophy” (Scientific Reports, 2017)
